Results reported in ChEMBL document CHEMBL5465560, “Selectivity Literature for EUbOPEN Chemogenomic Library” (2024).
Values belong to the compound of their own block, whether it stands above or below them.

Legend:
[1] = target: Hepatocyte growth factor-like protein (Homo sapiens) (UniProt P26927); assay: Selectivity interaction (KinomeScan (DiscoverX)) EUB0000655a MST1; details: at 10 µM
[2] = target: Myosin light chain kinase 2, skeletal/cardiac muscle (Homo sapiens) (UniProt Q9H1R3); assay: Selectivity interaction (KinomeScan (DiscoverX)) EUB0000655a MYLK2; details: at 10 µM
[3] = target: MAP kinase-activated protein kinase 3 (Homo sapiens) (UniProt Q16644); assay: Selectivity interaction (SelectScreen profiling (Invitrogen)) EUB0000607a MAPKAPK3; details: at 2 µM
[4] = target: T1, Ephrin type-B receptor 1 (Homo sapiens) (UniProt P54762); assay: Selectivity interaction (KinomeScan (DiscoverX)) EUB0001619a EPHB1; details: at 1 µM
T1 sequence (whole entry): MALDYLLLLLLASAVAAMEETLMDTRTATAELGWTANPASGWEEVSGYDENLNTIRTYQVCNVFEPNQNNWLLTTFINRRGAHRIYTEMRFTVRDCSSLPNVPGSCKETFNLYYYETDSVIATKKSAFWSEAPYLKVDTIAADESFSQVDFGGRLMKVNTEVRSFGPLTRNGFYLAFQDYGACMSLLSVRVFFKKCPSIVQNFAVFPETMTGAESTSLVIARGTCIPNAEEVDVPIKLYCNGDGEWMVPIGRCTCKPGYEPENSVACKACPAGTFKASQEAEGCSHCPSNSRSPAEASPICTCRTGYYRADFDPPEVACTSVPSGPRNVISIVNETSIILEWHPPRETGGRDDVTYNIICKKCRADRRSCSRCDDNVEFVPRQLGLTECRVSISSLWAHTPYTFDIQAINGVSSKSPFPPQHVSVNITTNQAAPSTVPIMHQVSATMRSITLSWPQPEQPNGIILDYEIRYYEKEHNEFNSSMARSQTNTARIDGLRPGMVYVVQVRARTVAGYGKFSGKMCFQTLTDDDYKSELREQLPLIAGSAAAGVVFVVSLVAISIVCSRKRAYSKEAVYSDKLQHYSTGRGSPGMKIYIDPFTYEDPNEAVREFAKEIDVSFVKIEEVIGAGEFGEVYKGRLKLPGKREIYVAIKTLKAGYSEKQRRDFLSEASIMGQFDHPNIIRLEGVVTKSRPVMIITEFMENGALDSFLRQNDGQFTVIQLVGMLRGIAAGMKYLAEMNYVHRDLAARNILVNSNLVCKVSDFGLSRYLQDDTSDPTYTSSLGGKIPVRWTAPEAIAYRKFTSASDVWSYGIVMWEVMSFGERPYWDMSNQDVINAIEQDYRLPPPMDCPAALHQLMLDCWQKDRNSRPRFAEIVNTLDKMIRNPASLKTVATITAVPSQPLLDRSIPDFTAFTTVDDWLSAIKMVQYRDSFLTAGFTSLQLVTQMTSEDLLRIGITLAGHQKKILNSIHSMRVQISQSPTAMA

[5] = target: Proto-oncogene tyrosine-protein kinase ROS (Homo sapiens) (UniProt P08922); assay: Selectivity interaction (KinomeScan (DiscoverX)) EUB0000045b ROS1
[6] = target: T2, Histone-lysine N-methyltransferase EHMT1 (Homo sapiens) (UniProt Q9H9B1); assay: Selectivity interaction (Transferase panel (protein, RNA, and DNA methyltransferases. and EP300 (acetyltransferase))) EUB0000270b EHMT1
T2 sequence (whole entry): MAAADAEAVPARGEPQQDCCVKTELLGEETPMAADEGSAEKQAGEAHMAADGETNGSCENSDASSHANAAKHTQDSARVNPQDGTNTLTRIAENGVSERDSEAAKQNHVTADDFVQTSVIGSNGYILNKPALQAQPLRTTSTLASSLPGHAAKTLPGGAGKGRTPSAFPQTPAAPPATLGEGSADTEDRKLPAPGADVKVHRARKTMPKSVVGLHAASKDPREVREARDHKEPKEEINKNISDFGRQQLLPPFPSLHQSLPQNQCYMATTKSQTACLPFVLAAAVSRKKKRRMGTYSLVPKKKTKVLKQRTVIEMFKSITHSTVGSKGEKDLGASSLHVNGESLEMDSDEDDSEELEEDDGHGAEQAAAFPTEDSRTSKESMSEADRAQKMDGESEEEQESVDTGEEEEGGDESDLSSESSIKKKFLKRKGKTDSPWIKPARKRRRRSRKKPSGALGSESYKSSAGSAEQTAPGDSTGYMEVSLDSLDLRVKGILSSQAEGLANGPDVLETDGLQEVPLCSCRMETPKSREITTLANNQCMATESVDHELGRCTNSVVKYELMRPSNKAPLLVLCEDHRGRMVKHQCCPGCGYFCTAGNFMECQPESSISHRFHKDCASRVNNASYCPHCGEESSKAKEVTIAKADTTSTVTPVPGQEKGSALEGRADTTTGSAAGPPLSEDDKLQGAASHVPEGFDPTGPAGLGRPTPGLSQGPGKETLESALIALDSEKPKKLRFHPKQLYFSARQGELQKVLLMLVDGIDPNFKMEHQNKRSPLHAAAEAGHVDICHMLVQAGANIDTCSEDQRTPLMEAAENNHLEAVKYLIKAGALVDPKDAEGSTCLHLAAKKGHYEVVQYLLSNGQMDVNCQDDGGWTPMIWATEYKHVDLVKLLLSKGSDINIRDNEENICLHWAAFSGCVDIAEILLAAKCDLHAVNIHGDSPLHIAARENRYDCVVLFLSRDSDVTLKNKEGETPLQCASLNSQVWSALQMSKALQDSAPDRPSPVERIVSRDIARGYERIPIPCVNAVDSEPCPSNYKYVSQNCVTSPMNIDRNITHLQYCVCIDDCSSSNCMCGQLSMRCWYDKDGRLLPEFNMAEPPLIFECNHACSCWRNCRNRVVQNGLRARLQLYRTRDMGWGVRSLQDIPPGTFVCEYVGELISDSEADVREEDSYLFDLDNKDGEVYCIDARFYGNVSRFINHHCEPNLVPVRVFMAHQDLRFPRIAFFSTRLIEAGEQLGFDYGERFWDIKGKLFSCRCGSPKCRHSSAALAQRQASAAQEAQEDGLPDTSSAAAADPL

[7] = target: Eukaryotic translation initiation factor 2-alpha kinase 1 (Homo sapiens) (UniProt Q9BQI3); assay: Selectivity interaction (KinomeScan (DiscoverX)) EUB0000229b EIF2AK1; details: at 10 µM
[8] = target: Cyclin-dependent kinase 19 (Homo sapiens) (UniProt Q9BWU1); assay: Selectivity interaction (KinomeScan (DiscoverX)) EUB0000229b CDK19; details: at 10 µM
Motilin receptor = Motilin receptor (Homo sapiens, UniProt O43193); assay: Selectivity interaction (Motilin receptor binding assay, human recombinant ) EUB0000877a MLNR
[9] = target: Fibroblast growth factor receptor 2 (Homo sapiens) (UniProt P21802); assay: Selectivity interaction (KinomeScan (DiscoverX)) EUB0000092b FGFR2; details: at 10 µM
[10] = target: Ribosomal protein S6 kinase alpha-6 (Homo sapiens, UniProt Q9UK32); assay: Selectivity interaction (Kinase panel (Z-LYTE Assay)) EUB0001632a RPS6KA6; details: at 10 µM
Sequence of Ribosomal protein S6 kinase alpha-6 (Q9UK32 whole entry): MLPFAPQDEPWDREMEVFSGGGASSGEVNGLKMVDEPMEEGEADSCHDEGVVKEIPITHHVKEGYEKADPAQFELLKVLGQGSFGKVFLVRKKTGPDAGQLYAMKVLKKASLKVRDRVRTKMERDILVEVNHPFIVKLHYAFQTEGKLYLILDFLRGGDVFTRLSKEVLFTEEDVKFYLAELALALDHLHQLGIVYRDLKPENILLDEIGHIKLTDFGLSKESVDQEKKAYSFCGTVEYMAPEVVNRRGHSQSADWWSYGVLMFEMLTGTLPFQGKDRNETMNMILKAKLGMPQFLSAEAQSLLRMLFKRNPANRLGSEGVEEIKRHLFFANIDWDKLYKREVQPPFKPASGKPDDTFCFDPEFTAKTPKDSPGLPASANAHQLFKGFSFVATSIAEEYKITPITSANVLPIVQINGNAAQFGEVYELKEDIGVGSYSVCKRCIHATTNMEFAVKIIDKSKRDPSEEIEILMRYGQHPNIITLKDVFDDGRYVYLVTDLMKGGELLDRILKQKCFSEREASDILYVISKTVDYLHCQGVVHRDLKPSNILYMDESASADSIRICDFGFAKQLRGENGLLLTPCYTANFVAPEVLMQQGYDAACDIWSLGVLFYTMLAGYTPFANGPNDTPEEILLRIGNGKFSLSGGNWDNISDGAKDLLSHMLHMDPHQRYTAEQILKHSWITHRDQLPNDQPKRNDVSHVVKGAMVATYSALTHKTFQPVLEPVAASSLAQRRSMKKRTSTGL

Sequence of Proto-oncogene tyrosine-protein kinase ROS (Homo sapiens) (P08922 whole entry): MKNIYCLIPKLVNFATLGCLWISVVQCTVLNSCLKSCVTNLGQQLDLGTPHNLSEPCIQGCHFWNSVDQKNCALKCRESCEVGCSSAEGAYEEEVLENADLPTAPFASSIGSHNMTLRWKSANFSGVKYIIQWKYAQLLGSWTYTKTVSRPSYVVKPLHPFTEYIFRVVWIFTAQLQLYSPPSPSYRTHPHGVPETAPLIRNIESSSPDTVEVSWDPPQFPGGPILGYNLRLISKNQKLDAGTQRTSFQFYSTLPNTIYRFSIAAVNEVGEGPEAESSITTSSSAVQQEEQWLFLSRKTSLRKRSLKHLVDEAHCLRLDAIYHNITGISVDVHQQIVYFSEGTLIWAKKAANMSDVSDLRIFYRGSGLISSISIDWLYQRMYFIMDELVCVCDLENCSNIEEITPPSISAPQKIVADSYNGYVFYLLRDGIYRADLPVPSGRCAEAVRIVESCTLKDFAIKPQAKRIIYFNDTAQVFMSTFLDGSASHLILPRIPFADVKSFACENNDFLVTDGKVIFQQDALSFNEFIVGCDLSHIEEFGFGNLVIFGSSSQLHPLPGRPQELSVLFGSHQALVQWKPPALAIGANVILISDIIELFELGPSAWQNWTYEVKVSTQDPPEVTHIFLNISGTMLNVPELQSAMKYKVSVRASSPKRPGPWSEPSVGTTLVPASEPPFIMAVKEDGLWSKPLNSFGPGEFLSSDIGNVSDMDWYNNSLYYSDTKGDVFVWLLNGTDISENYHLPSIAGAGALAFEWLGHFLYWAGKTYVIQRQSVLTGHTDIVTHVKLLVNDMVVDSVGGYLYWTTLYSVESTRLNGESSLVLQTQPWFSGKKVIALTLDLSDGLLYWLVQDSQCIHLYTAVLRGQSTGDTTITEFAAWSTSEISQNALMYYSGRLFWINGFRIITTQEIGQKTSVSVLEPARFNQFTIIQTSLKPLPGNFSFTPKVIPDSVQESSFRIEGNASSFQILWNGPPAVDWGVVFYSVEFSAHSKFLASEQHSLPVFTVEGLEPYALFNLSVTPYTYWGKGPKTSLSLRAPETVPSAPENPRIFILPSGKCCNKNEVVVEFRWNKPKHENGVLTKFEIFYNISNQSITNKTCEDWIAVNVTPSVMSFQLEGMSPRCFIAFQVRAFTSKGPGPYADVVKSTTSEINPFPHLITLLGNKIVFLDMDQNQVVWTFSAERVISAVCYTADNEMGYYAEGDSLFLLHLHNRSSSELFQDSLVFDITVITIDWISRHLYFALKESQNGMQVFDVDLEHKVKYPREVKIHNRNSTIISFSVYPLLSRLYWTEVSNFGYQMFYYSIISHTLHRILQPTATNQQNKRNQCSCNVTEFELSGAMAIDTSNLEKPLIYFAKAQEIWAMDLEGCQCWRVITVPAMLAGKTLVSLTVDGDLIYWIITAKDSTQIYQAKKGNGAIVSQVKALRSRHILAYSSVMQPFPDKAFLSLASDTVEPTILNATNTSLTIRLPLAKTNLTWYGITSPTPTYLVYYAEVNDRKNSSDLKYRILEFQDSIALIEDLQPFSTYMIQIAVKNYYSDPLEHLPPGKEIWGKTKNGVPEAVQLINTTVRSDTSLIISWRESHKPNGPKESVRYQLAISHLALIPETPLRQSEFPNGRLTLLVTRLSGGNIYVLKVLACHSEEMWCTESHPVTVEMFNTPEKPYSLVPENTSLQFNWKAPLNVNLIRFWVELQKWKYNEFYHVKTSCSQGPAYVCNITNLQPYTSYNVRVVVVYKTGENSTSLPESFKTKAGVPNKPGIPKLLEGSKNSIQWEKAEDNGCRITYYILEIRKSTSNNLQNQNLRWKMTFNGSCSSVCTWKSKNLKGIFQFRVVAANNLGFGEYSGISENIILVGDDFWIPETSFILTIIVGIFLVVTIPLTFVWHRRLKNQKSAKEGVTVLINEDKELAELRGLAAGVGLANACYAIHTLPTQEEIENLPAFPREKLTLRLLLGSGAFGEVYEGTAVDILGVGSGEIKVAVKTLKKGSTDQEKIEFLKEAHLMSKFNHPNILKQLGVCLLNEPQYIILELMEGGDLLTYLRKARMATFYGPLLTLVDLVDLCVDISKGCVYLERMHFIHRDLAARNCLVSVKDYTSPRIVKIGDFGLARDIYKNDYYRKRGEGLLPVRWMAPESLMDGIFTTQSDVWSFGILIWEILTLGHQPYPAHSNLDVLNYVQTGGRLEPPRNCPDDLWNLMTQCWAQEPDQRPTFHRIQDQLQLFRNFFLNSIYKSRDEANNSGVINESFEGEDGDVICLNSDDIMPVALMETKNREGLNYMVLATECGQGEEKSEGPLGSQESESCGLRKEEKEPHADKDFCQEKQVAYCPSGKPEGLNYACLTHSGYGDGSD
Sequence of Motilin receptor (O43193 whole entry): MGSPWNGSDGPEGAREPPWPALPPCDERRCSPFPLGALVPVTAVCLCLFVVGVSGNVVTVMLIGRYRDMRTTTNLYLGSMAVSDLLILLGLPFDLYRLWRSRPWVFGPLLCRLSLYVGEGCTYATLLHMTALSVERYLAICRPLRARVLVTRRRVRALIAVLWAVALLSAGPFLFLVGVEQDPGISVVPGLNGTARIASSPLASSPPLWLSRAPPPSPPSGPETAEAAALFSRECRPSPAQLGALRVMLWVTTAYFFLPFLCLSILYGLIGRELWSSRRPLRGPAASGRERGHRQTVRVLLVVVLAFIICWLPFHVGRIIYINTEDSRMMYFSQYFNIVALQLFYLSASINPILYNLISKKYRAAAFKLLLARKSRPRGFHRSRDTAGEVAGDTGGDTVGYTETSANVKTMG
Sequence of Fibroblast growth factor receptor 2 (Homo sapiens) (P21802 22-821 limits assumed): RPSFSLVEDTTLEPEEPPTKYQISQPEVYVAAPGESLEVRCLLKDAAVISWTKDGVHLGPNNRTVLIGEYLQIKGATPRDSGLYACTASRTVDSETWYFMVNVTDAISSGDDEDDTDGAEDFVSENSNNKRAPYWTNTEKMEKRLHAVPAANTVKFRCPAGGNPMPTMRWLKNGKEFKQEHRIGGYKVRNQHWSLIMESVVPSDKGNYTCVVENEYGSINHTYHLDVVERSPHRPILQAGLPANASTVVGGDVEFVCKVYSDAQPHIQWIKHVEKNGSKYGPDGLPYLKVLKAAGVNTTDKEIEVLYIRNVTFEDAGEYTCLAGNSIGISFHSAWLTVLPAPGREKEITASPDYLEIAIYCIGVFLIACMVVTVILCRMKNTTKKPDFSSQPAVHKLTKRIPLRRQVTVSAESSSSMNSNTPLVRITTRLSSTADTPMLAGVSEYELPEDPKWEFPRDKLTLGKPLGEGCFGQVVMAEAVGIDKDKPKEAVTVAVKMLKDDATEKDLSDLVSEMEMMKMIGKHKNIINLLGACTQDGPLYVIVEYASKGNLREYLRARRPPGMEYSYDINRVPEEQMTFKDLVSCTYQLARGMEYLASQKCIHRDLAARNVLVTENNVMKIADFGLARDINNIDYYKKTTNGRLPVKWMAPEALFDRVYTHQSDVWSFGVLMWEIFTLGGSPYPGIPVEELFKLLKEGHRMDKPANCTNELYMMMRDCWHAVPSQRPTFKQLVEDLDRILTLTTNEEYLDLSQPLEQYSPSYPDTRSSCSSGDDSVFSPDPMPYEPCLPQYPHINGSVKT
Sequence of Cyclin-dependent kinase 19 (Homo sapiens) (Q9BWU1 whole entry): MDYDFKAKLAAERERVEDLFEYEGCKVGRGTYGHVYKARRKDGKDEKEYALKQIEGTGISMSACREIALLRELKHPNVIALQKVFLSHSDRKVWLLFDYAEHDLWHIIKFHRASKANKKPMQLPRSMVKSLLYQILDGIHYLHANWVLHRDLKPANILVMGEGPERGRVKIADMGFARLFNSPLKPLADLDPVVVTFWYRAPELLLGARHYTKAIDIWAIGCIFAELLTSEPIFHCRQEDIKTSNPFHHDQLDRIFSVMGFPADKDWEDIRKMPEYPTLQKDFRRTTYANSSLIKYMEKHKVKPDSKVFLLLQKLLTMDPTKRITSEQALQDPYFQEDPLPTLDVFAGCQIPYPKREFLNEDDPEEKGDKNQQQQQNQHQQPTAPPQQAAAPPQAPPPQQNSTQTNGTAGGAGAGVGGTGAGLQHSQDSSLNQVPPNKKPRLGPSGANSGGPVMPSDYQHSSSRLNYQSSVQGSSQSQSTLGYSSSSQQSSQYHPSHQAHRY

SMILES: CN(C)CCOc1ccc(-c2nc(-c3ccncc3)c(-c3ccc4c(c3)CC/C4=N\O)[nH]2)cc1
% of control [1]: 100% | % of control [2]: 100%

SMILES: CNC(=O)Nc1ccc(-c2nc(N3CC4CCC(C3)O4)c3cnn(C4CCC5(CC4)OCCO5)c3n2)cc1
% of inhibition [3]: 1%

SMILES: N#Cc1cccc(-c2c[nH]c3ncnc(N4CCOCC4)c23)c1
% of control [4]: 100%

SMILES: C=CC(=O)Nc1cc(-n2c(=O)ccc3cnc4ccc(-c5ccc(NS(C)(=O)=O)cc5)cc4c32)ccc1C
% of control ([5]; at 1 µM): 81% | % of control ([5]; at 10 µM): 83%

% activity ([6]; at 1 µM): > 90% | % activity ([6]; at 10 µM): > 80%
SMILES: Cc1cc(CN)cc(C)c1-c1ncn(C)c1-c1cncn1C

SMILES: COc1cc(N(C)c2ccnc3ccc(C(F)(F)F)cc23)cc(OC)c1OC
% binding [7]: 74% | % binding [8]: 69%

IC50 (Motilin receptor): > 30 µM
SMILES: CCC(=O)N1CC[C@H](Nc2ncnc3c2CN(c2cnc(OC)c(C(F)(F)F)c2)CC3)C1 [LENIOLISIB]

SMILES: CCC(=O)N1CCN(c2ccc(-n3c(=O)ccc4cnc5ccc(-c6cnc7ccccc7c6)cc5c43)cc2C(F)(F)F)CC1
% of control [9]: 55%

% of control [10]: 9.97%
SMILES: Cn1cc(-n2cnc3c(NCc4nc5cc(Cl)c(Cl)cc5[nH]4)nc(N4CCOCC4)nc32)cn1
